Results published in US20190201414A1, “INHIBITOR OF HEME DEGRADATION FOR USE TO IMPROVE ANTIBIOTIC TREATMENT OF MYCOBACTERIUM TUBERCULOSIS INFECTION” (The United States of America, as represented by the …, priority 2016, published 2019).
In brackets after ≈: the same amount, converted by molar mass. Entries after “also recorded” stand apart in the source; their conditions may differ. Where two headings read alike, the source gives them in different places.

Columns and labels:
[1] = tested on: Mtb-infected bone marrow derived macrophages (BMDM); assay: bacterial load in Mtb-infected bone marrow derived macrophages; type: cell-based; conditions: for reduction in the number of bacilli: iron chelating agent added to SnPPIX; for intracellular bacterial burden: iron chelating agent alone; for effect on SnPPIX-induced reduction in bacillary load: incubated in conjunction with SnPPIX; for number of bacteria: iron donor added alone
[2] = tested on: M. tuberculosis strain H37Rv; assay: micro-dilution broth MIC99 assay in GAST media; type: cell-based; conditions: for MIC99: read-out: day 28 MIC99; for inhibition of bacterial growth: 28-day period
[3] = tested on: GFP-expressing M. tuberculosis/pMSP12; assay: microbe, parasite or virus in culture; type: cell-based; conditions: for MIC: read-out: day 21 MIC95
[4] = tested on: M. tuberculosis strain H37Rv; type: in vivo, mice
[5] = target: T1, recombinant human HO-1-G139A (hHO-1) (Homo sapiens, UniProt P09601, G139A); assay: heme degradation by recombinant human HO-1-G139A, UV/vis spectroscopy; type: biochemical; conditions: 2 μM SnPPIX, 1 hour
T1 construct: made in house
T1 sequence (P09601 1-288 G139A): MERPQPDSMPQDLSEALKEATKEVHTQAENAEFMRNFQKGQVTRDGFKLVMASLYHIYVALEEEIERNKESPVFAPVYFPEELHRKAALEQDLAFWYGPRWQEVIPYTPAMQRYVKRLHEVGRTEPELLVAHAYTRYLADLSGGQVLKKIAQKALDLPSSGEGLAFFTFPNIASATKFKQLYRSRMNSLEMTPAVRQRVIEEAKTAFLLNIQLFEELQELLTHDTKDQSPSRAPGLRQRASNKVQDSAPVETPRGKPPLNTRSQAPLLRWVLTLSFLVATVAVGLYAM

[6] = newborns, clinical use; cited from earlier work
M. tuberculosis MhuD = target: T2, M. tuberculosis MhuD (Mycobacterium tuberculosis, UniProt P9WKH3); assay: MhuD heme/SnPPIX degradation assay by UV/vis spectroscopy; type: biochemical
T2 construct: His6 (C); made in house; host or cells: Escherichia coli BL21-Gold (DE3)

heme oxygenase = conditions: comparison SnPPIX vs ZnPPIX; cited from earlier work
[7] = comparison ZnPPIX vs SnPPIX; cited from earlier work

T2 sequence (P9WKH3 whole entry): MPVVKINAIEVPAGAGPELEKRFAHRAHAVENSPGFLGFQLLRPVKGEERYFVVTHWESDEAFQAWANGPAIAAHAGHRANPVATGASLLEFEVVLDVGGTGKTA

## c1ccc(-c2ccccn2)nc1 [DP, 2′2′dipyridyl]
[1]
  reduction in the number of bacilli: further enhancement in the reduction
  intracellular bacterial burden: significant reduction

## [Cl][Fe]([Cl])[Cl] [FeCl3]
[1]
  effect on SnPPIX-induced reduction in bacillary load: completely inhibited the reduction in bacillary load
  number of bacteria: did not significantly enhance the number of bacteria

## O=S(=O)([O-])[O-].[Fe+2] [FeSO4]
[1]
  effect on SnPPIX-induced reduction in bacillary load: completely inhibited the reduction in bacillary load
  number of bacteria: did not significantly enhance the number of bacteria

## NNC(=O)c1ccncc1 [Isoniazid, reference compound]
[2]; Mycobacterium tuberculosis, H37RV, 672 h, GAST + 10 μM Hemin
  MIC99: 0.1 µM
[2]; Mycobacterium tuberculosis, H37RV, 672 h, GAST medium
  MIC99: 0.1 µM (≈ 0.0137 µg/mL)
[2]; Mycobacterium tuberculosis, H37RV, 672 h, GASTFe medium
  MIC99: 0.2 µM (≈ 0.0274 µg/mL)

## Cc1ncc(CO)c(C=NNC(=O)c2ccncc2)c1O [PIH, pyridoxal isonicotinoyl hydrazone]
[1]
  reduction in the number of bacilli: further enhancement in the reduction
  intracellular bacterial burden: significant reduction

## CO[C@H]1/C=C/O[C@@]2(C)Oc3c(C)c(O)c4c(O)c(c(/C=N/N5CCN(C)CC5)c(O)c4c3C2=O)NC(=O)/C(C)=C\C=C\[C@H](C)[C@H](O)[C@@H](C)[C@@H](O)[C@@H](C)[C@H](OC(C)=O)[C@@H]1C [Rifampicin, reference compound]
[3]; Mycobacterium tuberculosis, 504 h, pH 6
  MIC: 0.04 µM (≈ 0.0329 µg/mL)
[3]; Mycobacterium tuberculosis, 504 h
  MIC: 0.04 µM (≈ 0.0329 µg/mL)

## C=Cc1c(C)c2cc3[nH]c(cc4nc(cc5nc(cc1[nH]2)C(C)=C5CCC(=O)[O-])C(CCC(=O)[O-])=C4C)c(C)c3C=C.[Cl-].[Cl-].[Sn+4] [SnPPIX, tin (IV) protoporphyrin IX dichloride]
[4]; C57BL/6, lungs vs mediastinal lymph nodes or spleens
  effect on bacterial load by organ: more prominent in the lungs
[4]; SnPPIX initiated 6 weeks after initiation of RHZ therapy
  enhancement of RHZ efficacy: failed to enhance RHZ efficacy
[4]; TCR-α−/− mice, treatment from 4 wpi, euthanized two weeks after initiation
  bacterial loads: indistinguishable from those of untreated
[4]; mouse, in vivo
  mycobacterial load: highly significant reduction
  protection / mortality kinetics: failed to protect
  pulmonary bacterial load: not at 3 wpi; also recorded: no difference in bacterial loads
  reduction in pulmonary bacterial loads below untreated infected mice: ~1 log
[4]; mouse, in vivo, ip
  bacterial loads in lungs and mediastinal lymph nodes vs non-treated mice: diminished bacterial loads
[4]; mouse, in vivo, ip, 5 mg/kg
  pulmonary bacterial load: highly significant reduction
[5]
  heme-degrading activity of HO-1: blocked
[1]; added alone
  cellular bacterial load: reduced cellular bacterial load
[6]
  side effects: minimum side effects
[2]; 125 μM, complete (iron-containing) GAST medium
  inhibition of bacterial growth: No inhibition of bacterial growth was observed
[2]; 125 μM, iron-free medium plus 10 μM hemin
  effect of hemin addition on toxicity in iron-free medium: reversed this effect
[2]; 125 μM, iron-free medium
  inhibition of bacterial growth: toxicity was observed
[2]; GAST + 10 μM Hemin
  MIC99: >125 µM
[2]; GAST medium
  MIC99: 125 µM
[2]; GASTFe medium
  MIC99: >125 µM
M. tuberculosis MhuD; 2 μM SnPPIX, 5 μM MhuD-heme, 1 hour
  effect on heme degradation by MhuD: does not appear to have an effect
M. tuberculosis MhuD; monitored for 24 hours
  SnPPIX degradation by MhuD: no SnPPIX degradation even after 24 hours
Heme oxygenase
  heme oxygenase inhibitory capacity: higher heme oxygenase inhibitory capacity compared with ZnPPIX
[3]; pH 6
  MIC: >125 µM
[3]; pH 7
  inhibition of bacterial growth: no inhibition of bacterial growth was observed
[3]
  MIC: >125 µM

## C=CC1=C(C)c2cc3[n-]c(cc4[n-]c(cc5nc(cc1n2)C(C)=C5C=C)c(C)c4CCC(=O)O)c(CCC(=O)O)c3C.[Zn+2] [ZnPPIX, zinc (II) protoporphyrin IX]
[7]
  solubility: less soluble than SnPPIX
